What all share (assay): relative viability (nuclei count vs DMSO), 5 days (fraction); higher = more cells survive
Compound in experiment [1]: CNC(=O)c1cc(Oc2ccc(NC(=O)Nc3ccc(Cl)c(C(F)(F)F)c3)cc2)ccn1 [Sorafenib] + COc1cccc2cc(-c3nc([C@H]4CC[C@H](C(=O)O)CC4)n4ncnc(N)c34)[nH]c12 [OSI-027] (partner 0.5 µM)
Summed up:
(§1)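 Cells from lung cancer lines were seeded into 1536-well plates and, one day later, dosed by pin tool. Treatments were either a single drug or a fixed dose of an anchor drug with five library-drug doses (not always all listed) in √10 steps. After 5 days, nuclei were stained in a one-step fixation (final 0.05% Triton X-100, 1% formaldehyde, 1 ug/ml Hoechst) and counted on 4× images, and relative viability is the treated-to-vehicle nuclei ratio, as the median of duplicate plates.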

Compound in experiment [2]: CNC(=O)c1cc(Oc2ccc(NC(=O)Nc3ccc(Cl)c(C(F)(F)F)c3)cc2)ccn1 [Sorafenib] + N=C(N)NC(=N)NCCc1ccccc1 [Phenformin] (partner 250 µM)
Summed up:
as §1

Compound in experiment [3]: CNC(=O)c1cc(Oc2ccc(NC(=O)Nc3ccc(Cl)c(C(F)(F)F)c3)cc2)ccn1 [Sorafenib] + CC(=O)c1c(C)c2cnc(Nc3ccc(N4CCNCC4)cn3)nc2n(C2CCCC2)c1=O [Palbociclib] (partner 0.5 µM)
Summed up: as §1

Compound in experiment [4]: CNC(=O)c1cc(Oc2ccc(NC(=O)Nc3ccc(Cl)c(C(F)(F)F)c3)cc2)ccn1 [Sorafenib] + CCNC(=O)c1noc(-c2cc(C(C)C)c(O)cc2O)c1-c1ccc(CN2CCOCC2)cc1 [Luminespib] (partner 0.01 µM)
Summed up: as §1

Compound in experiment [5]: CNC(=O)c1cc(Oc2ccc(NC(=O)Nc3ccc(Cl)c(C(F)(F)F)c3)cc2)ccn1 [Sorafenib] + CS(=O)(=O)N1CCN(Cc2cc3nc(-c4cccc5[nH]ncc45)nc(N4CCOCC4)c3s2)CC1 [Pictilisib] (partner 1 µM)
Summed up:
as §1

As for HCC-827, the relative viability in experiment [1] (first compound 0.08 µM) turned out to be 0.956; in experiment [1] (first compound 0.253 µM), 0.715; in experiment [1] (first compound 2.53 µM), 0.723; in experiment [1] (first compound 8 µM) it was 0.723; in experiment [2] (first compound 0.08 µM), 0.447; in experiment [2] (first compound 0.253 µM), 0.399. The relative viability in experiment [2] (first compound 2.53 µM) turned out to be 0.447; in experiment [2] (first compound 8 µM), 0.424; in experiment [3] (first compound 0.08 µM), 0.572; in experiment [3] (first compound 0.253 µM) it was 0.478; in experiment [3] (first compound 2.53 µM), 0.492; in experiment [3] (first compound 8 µM), 0.514. Moreover, the relative viability in experiment [4] (first compound 0.08 µM) was 0.709; in experiment [4] (first compound 0.253 µM), 0.525; in experiment [4] (first compound 2.53 µM) it was 0.59; in experiment [4] (first compound 8 µM), 0.638; in experiment [5] (first compound 0.08 µM), 1.19; in experiment [5] (first compound 0.253 µM), 0.897. Besides, the relative viability turned out to be 0.861 in experiment [5] (first compound 2.53 µM) and 0.727 in experiment [5] (first compound 8 µM).

With HCC-78, the relative viability turned out to be 0.39 in experiment [1] (first compound 0.08 µM); 0.304 in experiment [1] (first compound 0.253 µM); 0.431 in experiment [1] (first compound 2.53 µM); 0.384 in experiment [1] (first compound 8 µM); 0.812 in experiment [2] (first compound 0.08 µM); 0.598 in experiment [2] (first compound 0.253 µM). For the same cell line, the relative viability in experiment [2] (first compound 8 µM) was 0.713; in experiment [3] (first compound 0.08 µM), 0.468; in experiment [3] (first compound 0.253 µM) it was 0.471; in experiment [3] (first compound 2.53 µM), 0.529; in experiment [3] (first compound 8 µM) it was 0.476; in experiment [5] (first compound 0.08 µM), 0.254. Besides, the relative viability in experiment [5] (first compound 0.253 µM) turned out to be 0.229; in experiment [5] (first compound 2.53 µM), 0.268; in experiment [5] (first compound 8 µM), 0.217.

In the case of HCC-366, the relative viability amounted to 0.951 in experiment [1] (first compound 0.08 µM); 0.937 in experiment [1] (first compound 0.253 µM); 0.866 in experiment [1] (first compound 2.53 µM); 0.327 in experiment [1] (first compound 8 µM); 0.598 in experiment [2] (first compound 0.08 µM); 0.507 in experiment [2] (first compound 0.253 µM). Also, the relative viability in experiment [2] (first compound 2.53 µM) worked out at 0.539; in experiment [2] (first compound 8 µM), 0.559; in experiment [3] (first compound 0.08 µM), 0.393; in experiment [3] (first compound 0.253 µM), 0.424; in experiment [3] (first compound 2.53 µM), 0.323; in experiment [3] (first compound 8 µM) it was 0.353. In addition, the relative viability worked out at 0.208 in experiment [5] (first compound 0.08 µM), 0.118 in experiment [5] (first compound 0.253 µM), 0.138 in experiment [5] (first compound 2.53 µM) and 0.151 in experiment [5] (first compound 8 µM).

For HARA, the relative viability is 0.606 in experiment [1] (first compound 0.08 µM); 0.5 in experiment [1] (first compound 0.253 µM); 0.619 in experiment [1] (first compound 2.53 µM); 0.257 in experiment [1] (first compound 8 µM); 0.498 in experiment [2] (first compound 0.08 µM); 0.456 in experiment [2] (first compound 0.253 µM). The relative viability is 0.41 in experiment [2] (first compound 2.53 µM); 0.307 in experiment [2] (first compound 8 µM); 0.295 in experiment [3] (first compound 0.08 µM); 0.286 in experiment [3] (first compound 0.253 µM); 0.303 in experiment [3] (first compound 2.53 µM); 0.339 in experiment [3] (first compound 8 µM). Further, the relative viability in experiment [4] (first compound 0.08 µM) was 0.936; in experiment [4] (first compound 0.253 µM), 0.696; in experiment [4] (first compound 2.53 µM), 0.609; in experiment [4] (first compound 8 µM), 0.526; in experiment [5] (first compound 0.08 µM), 0.373; in experiment [5] (first compound 0.253 µM) it was 0.341. Besides, the results for the relative viability in experiment [5] (first compound 2.53 µM) and in experiment [5] (first compound 8 µM) were 0.411 and 0.327, respectively.

Take CAL-12T: the relative viability in experiment [1] (first compound 0.08 µM) came out at 0.78; in experiment [1] (first compound 0.253 µM), 0.492; in experiment [1] (first compound 2.53 µM), 0.565; in experiment [1] (first compound 8 µM) it was 0.299; in experiment [2] (first compound 0.08 µM) it was 0.641; in experiment [2] (first compound 0.253 µM), 0.54. Also, the relative viability in experiment [2] (first compound 2.53 µM) came to 0.583; in experiment [2] (first compound 8 µM) it was 0.202; in experiment [3] (first compound 0.08 µM), 0.512; in experiment [3] (first compound 0.253 µM), 0.396; in experiment [3] (first compound 2.53 µM), 0.489; in experiment [3] (first compound 8 µM) it was 0.247. The relative viability in experiment [4] (first compound 0.08 µM) worked out at 0.14; in experiment [4] (first compound 0.253 µM) it was 0.363; in experiment [4] (first compound 2.53 µM), 0.347; in experiment [4] (first compound 8 µM) it was 0.147; in experiment [5] (first compound 0.08 µM), 0.6; in experiment [5] (first compound 0.253 µM), 0.396. For the same cell line, the relative viability in experiment [5] (first compound 2.53 µM) amounted to 0.575; in experiment [5] (first compound 8 µM), 0.396.

With NCI-H596, the relative viability in experiment [1] (first compound 0.08 µM) amounted to 0.732; in experiment [1] (first compound 0.253 µM), 0.664; in experiment [1] (first compound 2.53 µM) it was 0.671; in experiment [1] (first compound 8 µM), 0.447; in experiment [2] (first compound 0.08 µM), 0.787; in experiment [2] (first compound 0.253 µM), 0.587. The relative viability in experiment [2] (first compound 2.53 µM) came out at 0.665; in experiment [2] (first compound 8 µM), 0.86; in experiment [4] (first compound 0.08 µM), 0.889; in experiment [4] (first compound 0.253 µM), 1.04; in experiment [4] (first compound 2.53 µM) it was 0.977; in experiment [4] (first compound 8 µM) it was 0.911. In addition, the relative viability in experiment [5] (first compound 0.08 µM) worked out at 0.354; in experiment [5] (first compound 0.253 µM) it was 0.436; in experiment [5] (first compound 2.53 µM), 0.374; in experiment [5] (first compound 8 µM), 0.372.

In the case of HCC-44, the relative viability in experiment [1] (first compound 0.08 µM) turned out to be 0.552; in experiment [1] (first compound 0.253 µM) it was 0.431; in experiment [1] (first compound 2.53 µM), 0.741; in experiment [1] (first compound 8 µM), 0.395; in experiment [2] (first compound 0.08 µM), 0.269; in experiment [2] (first compound 0.253 µM), 0.153. Besides, the relative viability in experiment [2] (first compound 2.53 µM) came out at 0.311; in experiment [2] (first compound 8 µM), 0.207; in experiment [3] (first compound 0.08 µM) it was 0.96; in experiment [3] (first compound 0.253 µM), 0.771; in experiment [3] (first compound 2.53 µM), 0.858; in experiment [3] (first compound 8 µM), 0.834. Besides, the relative viability in experiment [4] (first compound 0.08 µM) came out at 1.09; in experiment [4] (first compound 0.253 µM), 1.01; in experiment [4] (first compound 2.53 µM), 1.02; in experiment [4] (first compound 8 µM), 0.992; in experiment [5] (first compound 0.08 µM) it was 0.628; in experiment [5] (first compound 0.253 µM), 0.693. Also, the relative viability is 0.673 in experiment [5] (first compound 2.53 µM) and 0.549 in experiment [5] (first compound 8 µM).

Turning to NCI-H1650, the relative viability in experiment [1] (first compound 0.08 µM) came out at 0.83; in experiment [1] (first compound 0.253 µM) it was 0.599; in experiment [1] (first compound 2.53 µM) it was 0.908; in experiment [1] (first compound 8 µM), 0.31; in experiment [2] (first compound 0.08 µM) it was 0.557; in experiment [2] (first compound 0.253 µM) it was 0.456. In addition, the relative viability in experiment [2] (first compound 2.53 µM) turned out to be 0.564; in experiment [2] (first compound 8 µM) it was 0.164; in experiment [3] (first compound 0.08 µM), 0.363; in experiment [3] (first compound 0.253 µM), 0.493; in experiment [3] (first compound 2.53 µM), 0.401; in experiment [3] (first compound 8 µM) it was 0.26. Further, the relative viability in experiment [4] (first compound 0.08 µM) was 0.183; in experiment [4] (first compound 0.253 µM), 0.183; in experiment [4] (first compound 2.53 µM) it was 0.193; in experiment [4] (first compound 8 µM), 0.209; in experiment [5] (first compound 0.08 µM), 0.691; in experiment [5] (first compound 0.253 µM) it was 0.529. Moreover, the values for the relative viability in experiment [5] (first compound 2.53 µM) and in experiment [5] (first compound 8 µM) were 0.71 and 0.308, respectively.

Source of the values: the supplement of paper PMC10307832.
